Tested on: IMR90
Assay: Integrin ligation step with other extracellular matrices and growth factors after antibody induction
Assay type: cell-based, human
Settings: FIG. 12-15
Protocol: Cells were detached using conventional cell culture techniques and 60000 suspended cells in 100 μL media were incubated with 2 μg of each of the following antibodies—Anti-Integrin alpha V [272-17E6] (Abcam, USA), Anti-Integrin alpha 5 [P1D6]—Azide free (Abcam, USA), Anti-Integrin beta 3 antibody [25E11], Anti-Integrin αV/β5 (P1F6) L (Santa Cruz Biotechnology, USA), Anti-Integrin αVβ6, clone 10D5 (Merck, USA)—for 30 minutes in a 37° C. incubator. Control antibody used was normal mouse IgG1 antibody (Santa Cruz Biotechnology, USA). The volume of the cell suspension was brought up to 250 μL for subsequent seeding in a 48-well tissue culture plate. Two days after antibody treatment, extracellular matrix was added into the media. Reprogramming of U251 cells followed a modified procedure, where a 3-antibody combination comprising Anti-Integrins αv, αvβ5 and αvβ6 was used. Two days after antibody treatment, the cells were transferred to ECM that had been pre-coated onto the culture wells. Extracellular matrices used are basement membrane matrix, Geltrex (Life Technologies, USA), laminin 332 and laminin 511 (Biolamina, Sweden). One day after addition of extracellular matrix, the media was changed to one of the following growth factors-supplemented media—1) SKP media made up of DMEM/F12 (Life Technologies, USA) supplemented with 1× B27 supplement (Life Technologies, USA), 40 ng/mL bFGF, 20 ng/mL EGF (Life Technologies, USA); 2) mTESR2 (Stemcell Technologies, USA).
Cells were lysed for RNA using TRIzol® Reagent (Invitrogen, USA) following manufacturer's instructions. Purified RNA was reverse transcribed into cDNA using iScript™ cDNA synthesis kit (Bio-Rad, USA). The reaction was carried out in a 20 μL volume containing 4 μL 5× iScript reaction mix, 1 μL iScript reverse transcriptase, RNA template (≦1000 ng total RNA) and nuclease free water (variable). The complete reaction mix was incubated for at 5 minutes at 25° C., 30 minutes at 42° C., 5 minutes at 85° C. followed by holding at 4° C. (optional).
Reaction was performed on iQ5 multi-colour real-time PCR detection system (Bio-Rad, USA) using the iTaq™ Universal SYBR® Green supermix (Bio-Rad, USA). The 20 μL volume reaction component includes 10 μL iTaq™ Universal SYBR® Green supermix, 1 μL of primer mix (5 μM forward primer, 5 μM reverse primer), 1 to 100 ng template and nuclease free water (variable).
The reaction conditions were as follows: 30 sec at 95° C., followed by 40 cycles of 15 sec at 95° C. and 30 sec at 60° C. […] Relative quantization of target mRNA expression, normalized to an endogenous control and relative to a calibrator, was calculated using the mathematical expression for fold change 2-ΔΔCt (fold change).

Molecule | expression of MET and stemness markers
Laminin 521: extracellular matrix used during the integrin ligation step | positively influenced
Laminin 511: extracellular matrix (Biolamina, Sweden) used during the integrin ligation step | positively influenced
HGF: hepatocyte growth factor | reduced expression of both MET and stemness markers
KGF: keratinocyte growth factor (protein, UniProt P21781 32-194, looked up) Fibroblast growth factor 7: CNDMTPEQMATNVNCSSPERHTRSYDYMEGGDIRVRRLFCRTQWYLRIDKRGKVKGTQEMKNNYNIMEIRTVAVGIVAIKGVESEFYLAMNKEGKLYAKKECNEDCNFKELILENHYNTYASAKWTHNGGEMFVALNQKGIPVRGKKTKKEQKTAHFLPMAIT | did not appear to significantly affect

From patent US20170121687A1, “METHODS OF CELLULAR REPROGRAMMING” (Agency for Science, Technology and Research, priority 2014, published 2017)
